test system: HCV 1b_Huh-Luc/Neo-ET cell line persistently expressing a bicistronic genotype 1b replicon in Huh 7 cells; assay: HCV replicon assay (luciferase readout); type: cell-based; details: Hepatitis C virus, Huh-7, 72 h, read-out: Inhibition of HCV genotype 1b
Summary of the method: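 EC50, determined repeatedly, comes from a four-parameter logistic fit of luciferase signal as percent of untreated control. Readout follows 72 h compound exposure, in triplicate, of the HCV 1b_Huh-Luc/Neo-ET replicon line.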

Q: CC(C)(C)OC(=O)N[C@@H](C(=O)N1CCC[C@H]1c1cc(-c2ccc(C#Cc3ccc(-c4cnc([C@@H]5CCCN5C(=O)[C@H](NC(=O)OC(C)(C)C)c5ccccc5)[nH]4)cc3)cc2)n[nH]1)c1ccccc1 [Compound 210] was tested. Which EC50 did it give?
A: < 1 nM

Q: COC(=O)N[C@@H](CC(C)C)C(=O)N1CCC[C@H]1c1ncc(-c2ccc(C#Cc3ccc4nc([C@@H]5CCCN5C(=O)[C@H](CC(C)C)NC(=O)OC)[nH]c4c3)cc2)[nH]1 [Compound 1067] was tested. Which EC50 did it give?
A: < 1 nM

Q: With O=C(Cc1cccnc1)N[C@@H](C(=O)N1CCC[C@H]1c1cc(-c2ccc(C#Cc3ccc(-c4cnc([C@@H]5CCCN5C(=O)[C@H](NC(=O)Cc5cccnc5)c5ccccc5)[nH]4)cc3)cc2)n[nH]1)c1ccccc1 [Compound 222] as the molecule, how does the EC50 read?
A: < 1 nM

Q: COC(=O)N[C@H](C(=O)N1CCC[C@H]1c1nc2ccc(C#Cc3ccc(-c4cnc([C@@H]5CCCN5C(=O)[C@@H](C(C)C)N(C)C)[nH]4)cc3)cc2[nH]1)C(C)C [Compound 865] was tested. Which EC50 did it give?
A: < 1 nM

Q: Which EC50 does the source give for COC(=O)N[C@@H]1CCC[C@H]1C(=O)N1CCC[C@H]1c1ncc(-c2ccc(C#Cc3ccc4nc([C@@H]5CCCN5C(=O)[C@@H]5CCC[C@H]5NC(=O)OC)[nH]c4c3)cc2)[nH]1 [Compound 1058] here?
A: 10 to 999 nM

Q: For O=C(N[C@@H](C(=O)N1CCC[C@H]1c1ncc(C#Cc2ccc(C#Cc3cnc([C@@H]4CCCN4C(=O)[C@H](NC(=O)C4CC4)c4ccccc4)[nH]3)cc2)[nH]1)c1ccccc1)C1CC1 [Compound 303], which EC50 is on record?
A: < 1 nM

Q: With COC(=O)N[C@H](C(=O)N1CCC[C@H]1c1ncc(-c2ccc(C#Cc3ccc(-c4cnc([C@H](C)NC(=O)[C@@H](NC(=O)OC)[C@@H](C)OC)[nH]4)cc3)cc2)[nH]1)C(C)OC (stereo partly drawn) [Compound 289] as the molecule, how does the EC50 read?
A: < 1 nM

Q: With O=C(N[C@@H](C(=O)N1CCC[C@H]1c1ncc(-c2ccc(C#Cc3ccc(-c4cnc([C@@H]5CCCN5C(=O)[C@@H](c5ccccc5)N5CCCCC5)[nH]4)cc3)cc2)[nH]1)c1ccccc1)N1CCOCC1 [Compound 209] as the molecule, how does the EC50 read?
A: < 1 nM

Q: With COC(=O)N[C@H](C(=O)N1CCC[C@H]1c1nc(-c2ccc3cc(C#Cc4cnc([C@@H]5CCCN5C(=O)[C@@H](NC(=O)OC)C5CCOCC5)[nH]4)ccc3c2)c[nH]1)C(C)C [Compound 1079] as the molecule, how does the EC50 read?
A: < 1 nM

Q: O=C(N[C@@H](C(=O)N1CCC[C@H]1C(=O)Nc1ccc(C#Cc2cnc([C@@H]3CCCN3C(=O)[C@H](NC(=O)C3CC3)c3ccccc3)[nH]2)cc1)c1ccccc1)C1CC1 [Compound 117] was tested. Which EC50 did it give?
A: < 1 nM

Q: COC(=O)N[C@H](C(=O)N(C)[C@@H](C)c1ncc(-c2ccc(C#Cc3ccc(-c4cnc([C@@H]5CCCN5C(=O)[C@@H](NC(=O)OC)C(C)C)[nH]4)cc3)cc2)[nH]1)C(C)C [Compound 267] was tested. Which EC50 did it give?
A: < 1 nM

Q: Which EC50 does the source give for CO[C@@H](C(=O)N1CCC[C@H]1c1ncc(-c2ccc(C#Cc3ccc(-c4cnc([C@@H]5CCCN5C(=O)[C@H](OC)c5ccccc5)[nH]4)cc3)cc2)[nH]1)c1ccccc1 [Compound 172] here?
A: < 1 nM

Q: How did the EC50 turn out when COC(=O)N[C@H](C(=O)N[C@@H](C)c1nc2ccc(C#Cc3ccc(-c4cnc([C@@H]5CCCN5C(=O)[C@@H](NC(=O)OC)C(C)C)[nH]4)cc3)cc2[nH]1)C(C)C [Compound 867] was run?
A: < 1 nM

Q: How did the EC50 turn out when COC(=O)N[C@H](C(=O)N1CCC[C@H]1c1nc(-c2ccc3cc(C#Cc4cnc([C@@H]5CCCN5C(=O)[C@@H](NC(=O)OC)C(C)C)[nH]4)ccc3c2)c[nH]1)c1ccccc1 [Compound 1078] was run?
A: < 1 nM

Q: With COC(=O)NC1(C(=O)N2CCC[C@H]2c2ncc(-c3ccc(C#Cc4ccc5nc([C@@H]6CCCN6C(=O)C6(NC(=O)OC)CC6)[nH]c5c4)cc3)[nH]2)CC1 [Compound 1043] as the molecule, how does the EC50 read?
A: 10 to 999 nM

Q: How did the EC50 turn out when COC(=O)N[C@H](C(=O)N1CCC[C@H]1c1nc2c([nH]1)-c1ccc(C#Cc3ccc(-c4cnc([C@@H]5CCCN5C(=O)[C@@H](NC(=O)OC)C5CCOCC5)[nH]4)cc3)cc1CCC2)C(C)C [Compound 1097] was run?
A: < 1 nM

Q: COC(=O)N[C@H](C(=O)N1CCC[C@H]1c1ncc(-c2ccc(C#Cc3ccc(-c4cnc([C@H](C)NC(=O)[C@H](C(C)C)N(C)C)[nH]4)cc3)cc2)[nH]1)C(C)C [Compound 981] was tested. Which EC50 did it give?
A: 10 to 999 nM

Q: For CCN(CC)[C@@H](C(=O)N1CCC[C@H]1c1ncc(-c2ccc(C#Cc3ccc(-c4cnc([C@@H]5CCCN5C(=O)[C@@H](c5ccccc5)N(CC)CC)[nH]4)cc3)cc2)[nH]1)c1ccccc1 [Compound 173], which EC50 is on record?
A: < 1 nM

Q: With COC(=O)N[C@H](C(=O)N1CCC[C@H]1c1nc2ccc(C#Cc3ccc(-c4ccc5nc([C@@H]6CCCN6C(=O)[C@@H](NC(=O)OC)C(C)C)[nH]c5c4)nc3)cc2[nH]1)C(C)C [Compound 1083] as the molecule, how does the EC50 read?
A: < 1 nM

Q: For COC(=O)N[C@@H](C(=O)N1CCC[C@H]1c1ncc(-c2ccc(C#Cc3ccc(-c4cnc([C@@H]5CCCN5C(=O)[C@H](NC(=O)[C@@H]5CCCO5)c5ccccc5)[nH]4)cc3)cc2)[nH]1)c1ccccc1 [Compound 195], which EC50 is on record?
A: < 1 nM

Q: For CC(C)(C)OC(=O)N[C@@H](C(=O)N1CCC[C@H]1CNC(=O)c1ccc(C#Cc2ccc(-c3cnc([C@@H]4CCCN4C(=O)[C@H](NC(=O)OC(C)(C)C)c4ccccc4)[nH]3)cc2)cc1)c1ccccc1 [Compound 192], which EC50 is on record?
A: 1 to 9.9 nM

Q: Which EC50 does the source give for O=C(N[C@@H](C(=O)N1CCC[C@H]1c1nc(-c2ccc3cc(C#Cc4cnc([C@@H]5CCCN5C(=O)[C@H](NC(=O)N5CC[C@H](O)C5)c5ccccc5)[nH]4)ccc3c2)c[nH]1)c1ccccc1)N1CC[C@H](O)C1 [Compound 806] here?
A: 1 to 9.9 nM

Q: With CC(=O)N[C@@H](C(=O)N1CCC[C@H]1c1ncc(C#Cc2ccc(C#Cc3cnc([C@@H]4CCCN4C(=O)[C@H](NC(C)=O)c4ccccc4)[nH]3)cc2)[nH]1)c1ccccc1 [Compound 306] as the molecule, how does the EC50 read?
A: < 1 nM

Q: For COC(=O)N1CCC[C@H]1C(=O)N1CCC[C@H]1c1ncc(-c2ccc(C#Cc3ccc4nc([C@@H]5CCCN5C(=O)[C@@H]5CCCN5C(=O)OC)[nH]c4c3)cc2)[nH]1 [Compound 1063], which EC50 is on record?
A: 10 to 999 nM

Q: O=C(N[C@@H](C(=O)N1CCC[C@H]1c1ncc(-c2ccc(C#Cc3ccc(-c4cnc([C@@H]5CCCN5C(=O)[C@H](NC(=O)N5CC[C@@H](O)C5)c5ccccc5)[nH]4)cc3)cc2)[nH]1)c1ccccc1)N1CC[C@@H](O)C1 [Compound 252] was tested. Which EC50 did it give?
A: < 1 nM

Q: For CN(C)[C@@H](C(=O)N1CCC[C@H]1c1ncc(C#Cc2ccc(C#Cc3cnc([C@@H]4CCCN4C(=O)[C@@H](c4ccccc4)N(C)C)[nH]3)cc2)[nH]1)c1ccccc1 [Compound 305], which EC50 is on record?
A: < 1 nM

Q: For O=C(N[C@@H](C(=O)N1CCC[C@H]1c1ncc(-c2ccc(C#Cc3ccc(-c4cnc([C@@H]5CCCN5C(=O)[C@H](NC(=O)N5CC[C@H](O)C5)c5ccccc5)[nH]4)cc3)cc2)[nH]1)c1ccccc1)N1CC[C@H](O)C1 [Compound 245], which EC50 is on record?
A: < 1 nM

Q: Which EC50 does the source give for COC(=O)N[C@H](C(=O)N1CCC[C@H]1c1ncc(-c2ccc(C#Cc3ccc4nc([C@@H]5CCCN5C(=O)[C@@H](NC(=O)OC)[C@@H](C)OC)[nH]c4c3)cc2)[nH]1)[C@@H](C)OC [Compound 862] here?
A: < 1 nM

Q: Which EC50 does the source give for COC(=O)N[C@@H](C(=O)N1CCC[C@H]1CNC(=O)c1ccc(C#Cc2ccc(-c3cnc([C@@H]4CCCN4C(=O)[C@H](NC(=O)OC)c4ccccc4)[nH]3)cc2)cc1)c1ccccc1 [Compound 211] here?
A: < 1 nM

Q: With COC(=O)N[C@H](C(=O)N1CCC[C@H]1c1ncc(-c2ccc(C#Cc3ccc4nc([C@@H]5CCCN5C(=O)[C@H](NC(=O)OC)c5ccccc5)[nH]c4c3)cc2)[nH]1)C(C)C [Compound 1023] as the molecule, how does the EC50 read?
A: < 1 nM

Q: With COC(=O)N[C@H](C(=O)N1CCC[C@H]1c1ncc(-c2ccc(C#Cc3ccc(-c4cnc([C@@H]5CCCN5C(=O)[C@@H](c5ccccc5)N5CCC(O)CC5)[nH]4)cc3)cc2)[nH]1)C(C)C [Compound 956] as the molecule, how does the EC50 read?
A: < 1 nM

Q: With COC(=O)N[C@@H](C(=O)N1CCC[C@H]1c1ncc(-c2ccc(C#Cc3ccc(-c4cnc([C@@H]5CCCN5C(=O)[C@H](NC(=O)[C@@H]5CCCN5C)c5ccccc5)[nH]4)cc3)cc2)[nH]1)c1ccccc1 [Compound 203] as the molecule, how does the EC50 read?
A: < 1 nM

Q: How did the EC50 turn out when COC(=O)N[C@@H](C(=O)N1CCC[C@H]1c1ncc(C#Cc2ccc(C#Cc3cnc([C@@H]4CCCN4C(=O)[C@@H](c4ccccc4)N4CCCCC4)[nH]3)cc2)[nH]1)c1ccccc1 [Compound 312] was run?
A: < 1 nM

Q: C[C@H]1OC(=O)N[C@@H]1C(=O)N1CCC[C@H]1c1ncc(-c2ccc(C#Cc3ccc(-c4cnc([C@@H]5CCCN5C(=O)[C@H]5NC(=O)O[C@@H]5C)[nH]4)cc3)cc2)[nH]1 [Compound 979] was tested. Which EC50 did it give?
A: 10 to 999 nM

Q: For COC(=O)N[C@H](C(=O)N1CCC[C@H]1c1ncc(-c2ccc(C#Cc3ccc(-c4cnc([C@@H]5CCCN5C(=O)[C@H](NC(=O)N(CCO)CCO)c5ccccc5)[nH]4)cc3)cc2)[nH]1)C(C)C [Compound 973], which EC50 is on record?
A: < 1 nM

Q: For COC(=O)N[C@H](C(=O)N1CCC[C@H]1c1ncc(C#Cc2ccc(-c3ccc4nc([C@@H]5CCCN5C(=O)[C@@H](NC(=O)OC)C(C)C)[nH]c4c3)cc2)[nH]1)C(C)C [Compound 1084], which EC50 is on record?
A: < 1 nM

Q: How did the EC50 turn out when COC(=O)N[C@H](C(=O)N1CCC[C@H]1c1nc(-c2cnc3cc(C#Cc4cnc([C@@H]5CCCN5C(=O)[C@@H](NC(=O)OC)C(C)C)[nH]4)ccc3c2)c[nH]1)C(C)C [Compound 1076] was run?
A: < 1 nM

Q: COC(=O)NCC(=O)N1CCC[C@H]1c1ncc(-c2ccc(C#Cc3ccc4nc([C@@H]5CCCN5C(=O)CNC(=O)OC)[nH]c4c3)cc2)[nH]1 [Compound 1049] was tested. Which EC50 did it give?
A: 10 to 999 nM

Q: Which EC50 does the source give for COC(=O)N[C@H](C(=O)N1CCC[C@H]1c1ncc(-c2ccc(C#Cc3ccc(-c4cnc([C@@H]5CCCN5C(=O)[C@@H](c5ccccc5)N5CCCC5)[nH]4)cc3)cc2)[nH]1)C(C)C [Compound 984] here?
A: < 1 nM

Q: Which EC50 does the source give for CC(C)(C)OC(=O)N[C@@H](C(=O)N1CCC[C@H]1C(=O)NCc1ccc(C#Cc2cnc([C@@H]3CCCN3C(=O)[C@H](NC(=O)OC(C)(C)C)c3ccccc3)[nH]2)cc1)c1ccccc1 [Compound 119] here?
A: < 1 nM

Q: How did the EC50 turn out when COC(=O)N[C@@H](C(=O)N1CCC[C@H]1c1ncc(C#Cc2ccc(-c3ccc(-c4cnc([C@@H]5CCCN5C(=O)[C@H](NC(=O)OC)c5ccccc5)[nH]4)cc3)cc2)[nH]1)c1ccccc1 [Compound 750] was run?
A: < 1 nM

Q: For COC(=O)N[C@H](C(=O)N1CCC[C@H]1c1ncc(-c2ccc(C#Cc3ccc(-c4cnc([C@@H]5CCCN5C(=O)[C@H](NC(=O)N5CC[C@H](O)C5)c5ccccc5)[nH]4)cc3)cc2)[nH]1)C(C)C [Compound 974], which EC50 is on record?
A: < 1 nM
